Common to all, as to format: cell-based
One experiment has as its target T1, human TLR8 (Homo sapiens, UniProt Q9NR97).
T1 construct: host or cells: HEK-Blue cells
T1 sequence (Q9NR97 27-1041): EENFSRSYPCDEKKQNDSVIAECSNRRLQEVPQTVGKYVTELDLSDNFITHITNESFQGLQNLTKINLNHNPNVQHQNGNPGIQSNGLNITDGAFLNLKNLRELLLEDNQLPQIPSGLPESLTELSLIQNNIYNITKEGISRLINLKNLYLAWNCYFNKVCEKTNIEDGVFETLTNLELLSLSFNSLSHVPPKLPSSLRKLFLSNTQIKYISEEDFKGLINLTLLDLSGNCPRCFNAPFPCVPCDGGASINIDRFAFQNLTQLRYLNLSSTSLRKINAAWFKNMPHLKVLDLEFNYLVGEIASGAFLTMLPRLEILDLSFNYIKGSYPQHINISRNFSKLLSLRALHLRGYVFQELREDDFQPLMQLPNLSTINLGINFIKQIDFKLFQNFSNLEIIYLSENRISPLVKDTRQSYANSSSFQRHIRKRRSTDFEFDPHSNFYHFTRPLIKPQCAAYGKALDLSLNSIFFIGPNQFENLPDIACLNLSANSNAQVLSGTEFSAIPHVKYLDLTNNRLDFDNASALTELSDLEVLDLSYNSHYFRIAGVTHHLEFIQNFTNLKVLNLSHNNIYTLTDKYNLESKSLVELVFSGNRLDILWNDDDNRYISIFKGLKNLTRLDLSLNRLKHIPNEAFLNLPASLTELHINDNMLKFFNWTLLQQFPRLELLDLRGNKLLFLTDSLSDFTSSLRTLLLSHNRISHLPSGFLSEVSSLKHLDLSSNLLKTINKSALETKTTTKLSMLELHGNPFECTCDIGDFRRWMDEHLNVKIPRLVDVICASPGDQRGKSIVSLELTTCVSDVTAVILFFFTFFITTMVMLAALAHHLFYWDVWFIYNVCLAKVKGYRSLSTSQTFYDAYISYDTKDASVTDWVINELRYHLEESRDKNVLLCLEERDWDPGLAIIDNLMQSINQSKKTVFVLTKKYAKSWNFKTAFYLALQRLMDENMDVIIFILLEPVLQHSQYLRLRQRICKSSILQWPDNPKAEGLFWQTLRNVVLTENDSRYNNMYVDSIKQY
Description: TLR8 inhibition reporter assay (HEK-Blue cells, SEAP reporter, R848 stimulation). To be noted: HEK-Blue cells overexpressing human TLR8, SEAP reporter, R848 15.9 μM. The gist of the method:
(§1)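 Percent inhibition is derived from SEAP signal, scaled between agonist-plus-DMSO wells and wells given a known inhibitor. Test compounds (0.05 nM–50 μM) are pre-incubated 30 min at room temperature before agonist addition (TLR7: 7.5 μM gardiquimod; TLR8: 15.9 μM R848; TLR9: 5 nM ODN2006) and 22 h culture at 37 °C.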
In general terms: A reporter such as luciferase makes a cellular process visible.

Another experiment deals with T2, human TLR9 (Homo sapiens, UniProt Q9NR96).
T2 construct: host or cells: HEK-Blue cells
T2 sequence (Q9NR96 26-1032): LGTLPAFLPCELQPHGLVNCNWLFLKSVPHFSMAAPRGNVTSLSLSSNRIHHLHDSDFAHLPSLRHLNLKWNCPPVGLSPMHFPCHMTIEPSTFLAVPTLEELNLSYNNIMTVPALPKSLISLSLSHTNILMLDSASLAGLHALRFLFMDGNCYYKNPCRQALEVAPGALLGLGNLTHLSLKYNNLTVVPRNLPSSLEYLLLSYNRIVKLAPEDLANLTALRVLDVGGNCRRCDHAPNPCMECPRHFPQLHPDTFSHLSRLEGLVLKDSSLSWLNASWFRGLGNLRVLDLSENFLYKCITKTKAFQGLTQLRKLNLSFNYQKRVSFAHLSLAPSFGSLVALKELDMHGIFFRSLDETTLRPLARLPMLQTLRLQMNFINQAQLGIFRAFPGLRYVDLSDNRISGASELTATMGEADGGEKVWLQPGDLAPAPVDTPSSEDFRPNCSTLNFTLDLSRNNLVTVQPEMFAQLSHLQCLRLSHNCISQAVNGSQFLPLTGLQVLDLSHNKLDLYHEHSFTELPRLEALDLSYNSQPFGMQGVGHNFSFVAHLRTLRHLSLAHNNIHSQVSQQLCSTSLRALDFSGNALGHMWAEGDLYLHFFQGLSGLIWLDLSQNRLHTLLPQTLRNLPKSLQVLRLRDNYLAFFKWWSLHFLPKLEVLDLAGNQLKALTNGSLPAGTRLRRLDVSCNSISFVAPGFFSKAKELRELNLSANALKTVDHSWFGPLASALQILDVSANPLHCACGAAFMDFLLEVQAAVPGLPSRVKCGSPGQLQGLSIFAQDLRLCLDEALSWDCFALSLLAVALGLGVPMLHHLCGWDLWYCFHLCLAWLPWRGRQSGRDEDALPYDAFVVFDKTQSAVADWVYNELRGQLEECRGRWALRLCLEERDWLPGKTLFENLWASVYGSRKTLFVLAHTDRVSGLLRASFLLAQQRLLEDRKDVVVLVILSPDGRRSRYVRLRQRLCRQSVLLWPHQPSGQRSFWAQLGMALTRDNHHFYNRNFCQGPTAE
Description: TLR9 inhibition reporter assay (HEK-Blue cells, SEAP reporter, ODN2006 stimulation). The following applies: HEK-Blue cells overexpressing human TLR9, SEAP reporter, ODN2006 5 nM. The gist of the method:
as §1

In another experiment the target is T3, human TLR7 (Homo sapiens, UniProt Q9NYK1).
T3 construct: host or cells: HEK-Blue cells
T3 sequence (Q9NYK1 27-1049): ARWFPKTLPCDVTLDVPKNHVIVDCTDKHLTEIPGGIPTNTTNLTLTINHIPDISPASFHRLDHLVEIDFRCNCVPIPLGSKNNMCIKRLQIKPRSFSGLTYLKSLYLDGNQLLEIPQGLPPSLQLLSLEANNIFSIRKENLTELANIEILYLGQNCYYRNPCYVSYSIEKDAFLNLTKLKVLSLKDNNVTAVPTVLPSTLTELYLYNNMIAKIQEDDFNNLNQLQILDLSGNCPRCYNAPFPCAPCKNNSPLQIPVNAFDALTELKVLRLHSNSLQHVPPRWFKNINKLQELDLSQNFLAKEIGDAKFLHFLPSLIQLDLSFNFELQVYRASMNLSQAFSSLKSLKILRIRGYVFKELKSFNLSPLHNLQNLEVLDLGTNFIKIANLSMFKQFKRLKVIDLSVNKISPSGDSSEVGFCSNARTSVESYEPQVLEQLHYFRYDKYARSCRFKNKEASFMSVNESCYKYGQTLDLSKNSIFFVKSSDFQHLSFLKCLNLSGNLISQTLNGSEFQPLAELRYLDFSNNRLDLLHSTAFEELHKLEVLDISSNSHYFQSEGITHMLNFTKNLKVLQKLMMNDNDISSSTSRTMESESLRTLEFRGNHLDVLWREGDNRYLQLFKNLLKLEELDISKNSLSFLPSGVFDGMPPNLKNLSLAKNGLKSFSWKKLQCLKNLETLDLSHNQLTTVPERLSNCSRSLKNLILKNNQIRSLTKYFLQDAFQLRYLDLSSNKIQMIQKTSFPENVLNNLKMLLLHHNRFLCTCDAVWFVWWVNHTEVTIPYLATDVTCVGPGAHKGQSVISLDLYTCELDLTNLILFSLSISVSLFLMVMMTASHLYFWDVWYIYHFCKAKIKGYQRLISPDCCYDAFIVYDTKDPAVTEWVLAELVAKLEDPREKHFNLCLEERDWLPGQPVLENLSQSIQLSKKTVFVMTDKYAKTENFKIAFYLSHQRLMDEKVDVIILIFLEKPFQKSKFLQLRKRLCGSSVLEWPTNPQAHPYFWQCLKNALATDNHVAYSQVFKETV
Description: TLR7 inhibition reporter assay (HEK-Blue cells, SEAP reporter, gardiquimod stimulation). To be noted: HEK-Blue cells overexpressing human TLR7, SEAP reporter, gardiquimod 7.5 μM. The essentials: as §1

Regarding `Cc1c(-c2[nH]c3ccc(C4CCC(N5CCOCC5)CC4)cc3c2C(C)C)cn2ncnc2c1C` (single isomer, unassigned) [Example 93], the figures for the 50% inhibitory concentration (IC50) against human TLR8, at human TLR9 and on human TLR7 were 3.8 nM, 3.8 µM and 3 nM, respectively.
In the case of `Cc1cc(-c2[nH]c3ccc([C@@H]4C[C@H]4C(=O)NC4CC5CCN4CC5)cc3c2C(C)C)ccn1` (stereo partly drawn) [Example 461], the IC50 on human TLR8 came to 30 nM; against human TLR9, 0.467 µM; against human TLR7, 86 nM.
Take `Cc1cc(-c2[nH]c3ccc(C4CN(CC(=O)N(C)C)C(C)(C)CO4)cc3c2C(C)C)cn2ncnc12` (single isomer, unassigned) [Example 379, 2-(2-(3-isopropyl-2-(8-methyl-[1,2,4]triazolo[1,5-a]pyridin-6-yl)-1H-indol-5-yl)-5,5-dimethylmorpholino)-N,N-dimethylacetamide]: the IC50 against human TLR8 is 70 nM; at human TLR9 it was 5.37 µM; at human TLR7, 12 nM.
Take `Cc1cc(-c2[nH]c3ccc(C4CN(CCS(C)(=O)=O)CCO4)cc3c2C(C)C)cn2ncnc12` (stereo not drawn) [Example 344]: the results for the IC50 against human TLR8, at human TLR9 and on human TLR7 were 14 nM, over 50 µM and 7 nM, respectively.
Regarding `Cc1c(-c2[nH]c3ccc(C4CCC(NC(=O)CN(C)C)CC4)cc3c2C(C)C)cn(C)c(=O)c1C` (stereo not drawn) [Example 472], the IC50 against human TLR8 was determined as 4.6 nM; against human TLR9, 23.7 µM; at human TLR7, 3 nM.
The corresponding values for `Cc1cc(-c2[nH]c3ccc([C@@H]4C[C@H]4CN4CCCC4)cc3c2C(C)C)ccn1` [Example 464] are 3.4 nM, 0.271 µM and 28 nM.
Take `CCc1c(-c2ccnc(C)c2)[nH]c2ccc(CN)cc12` [Example 394, [3-ethyl-2-(2-methylpyridin-4-yl)-1H-indol-5-yl]methanamine]: the IC50 worked out at 1080 nM at human TLR8, 2.59 µM against human TLR9 and 2560 nM against human TLR7.
For `CNC(=O)CN1CCOC(c2ccc3[nH]c(-c4cn5ncnc5c(C)c4C)c(C(C)C)c3c2)C1` (stereo not drawn) [Example 313], in that order: 60 nM, over 50 µM and 25 nM.
Turning to `Cc1c(-c2[nH]c3ccc(C4CCC(NC5(C)COC5)CC4)cc3c2C(C)C)cn2ncnc2c1C` (stereo not drawn) [Example 48], the results for the IC50 against human TLR8, against human TLR9 and against human TLR7 were 0.4 nM, 1.85 µM and 0.55 nM, respectively.
Regarding `COc1cc(-c2[nH]c3ccc(C4CCC(NCC(F)F)CC4)cc3c2C(C)C)cn2ncnc12` (single isomer, unassigned) [Example 67], the values for the half-maximal inhibitory concentration (IC50) at human TLR8, at human TLR9 and against human TLR7 were 1.3 nM, 5.76 µM and 0.17 nM, respectively.
Take `COc1cc(-c2[nH]c3ccc(C4CN(C(=O)CN(C)C)C(C)(C)CO4)cc3c2C(C)C)cn2ncnc12` (stereo not drawn) [Example 374]: the results for the concentration for half-maximal inhibition (IC50) against human TLR8, against human TLR9 and on human TLR7 were 110 nM, 5.9 µM and 20 nM, respectively.
With `Cc1c(-c2[nH]c3ccc(C4CCC(N)CC4)cc3c2C(C)C)cn2cnnc2c1C` (stereo not drawn) [Example 515], the values for the concentration for half-maximal inhibition (IC50) against human TLR8, against human TLR9 and against human TLR7 were 59 nM, 1.23 µM and 6 nM, respectively.
On to `Cc1cc(-c2[nH]c3ccc(C4CN(CC(N)=O)CCO4)cc3c2C(C)C)cc(C)n1` (stereo not drawn) [Example 327], for which the IC50 against human TLR8 is 48 nM; on human TLR9 it was over 50 µM; at human TLR7, 54 nM.
For `Cc1cc(-c2[nH]c3ccc(C4CCNC4)cc3c2C(C)C)cc(C)n1` (stereo not drawn) [Example 590], in that order: 0.5 nM, 0.93 µM and 5 nM.
With `Cc1cc(-c2[nH]c3ccc([C@H]4C[C@H]4C(=O)NC4CCNCC4)cc3c2C(C)C)ccn1` [Example 456], the results for the half-inhibitory concentration (IC50) at human TLR8, on human TLR9 and against human TLR7 were 56 nM, 0.224 µM and 124 nM, respectively.
Regarding `COc1cc(-c2[nH]c3ccc(C4CC5CNCC5C4)cc3c2C(C)C)cn2ncnc12` (stereo not drawn) [Example 508], the half-inhibitory concentration (IC50) on human TLR8 turned out to be 11 nM; against human TLR9, 1.49 µM; at human TLR7, 0.43 nM.
Consider `Cc1cc(-c2[nH]c3ccc(C4CCCN(C(=O)C5(C)COC5)C4)cc3c2C(C)C)cc(C)n1` (stereo not drawn) [Example 203], for which the IC50 against human TLR8 was determined as 345 nM; on human TLR9, 43.9 µM; on human TLR7 it was 56 nM.
As to `CNC(=O)CN1CCOC(c2ccc3[nH]c(-c4cn5ncnc5c(C)c4C)c(C(C)C)c3c2)C1` (stereo not drawn) [Example 311], the results for the IC50 at human TLR8, at human TLR9 and against human TLR7 were 38 nM, over 50 µM and 17 nM, respectively.
Take `Cc1cc(-c2[nH]c3ccc(C4CN(CCS(C)(=O)=O)C(C)(C)CO4)cc3c2C(C)C)cn2ncnc12` (stereo not drawn) [Example 384]: the half-maximal inhibitory concentration (IC50) on human TLR8 was found to be 11 nM; on human TLR9 it was 30.1 µM; against human TLR7, 13 nM.
On to `CCc1c(-c2ccnc(C)c2)[nH]c2ccc(CNC(=O)OCC3CCNCC3)cc12` [Example 449], for which the figures for the IC50 against human TLR8, against human TLR9 and at human TLR7 were 228 nM, 0.48 µM and 1600 nM, respectively.

A word on the IC50: it is the concentration that gives 50% inhibition.
